For two compounds, IC50 results are on record in ChEMBL document CHEMBL4261500, “New tricks for human farnesyltransferase inhibitor: cancer and beyond” (Medchemcomm, 2017).

Test [1] deals with Protein farnesyltransferase (Rattus norvegicus, UniProt Q02293+Q04631). Put plainly: Inhibition of recombinant rat FTase alpha/beta expressed in Escherichia coli using NBD-FPP/GST-tagged H-Ras as substrate incubated for 2 hrs by SDS-PAGE method.
The next test concerns A549. The experiment in a line: Cytotoxicity against human A549 cells assessed as decrease in cell viability after 48 hrs by MTT assay. In kind it is functional, cell-based. Conditions: A549, 48 h.
The target in test [2] is Protein farnesyltransferase (Homo sapiens, UniProt P49354+P49356). Put plainly: Inhibition of human EC17 cell-derived FTase using recombinant GST-tagged H-Ras/(3H)-FPP as substrate incubated for 1 hr by liquid scintillation counting method. In kind it is protein-complex assay.
A further test concerns A-431. The experiment in a line: Cytotoxicity against human A431 cells. The class given is cell-based.

In general, IC50 refers to the concentration needed to halve the response being measured.

Each structure is given as a SMILES string.

Turning to `COC1=C(OC)[C@H](O)[C@H](C/C=C(\C)CC/C=C(\C)CCC=C(C)C)[C@@H](C)C1=O` [ANTROQUINONOL], the IC50 in test [1] came out at 2990 nM; in the test with A549, 3240 nM.

Consider `CC[C@@]1(O)C[C@H](O[C@H]2C[C@H]([N+](C)(C)Cc3ccccc3)[C@@H](O[C@H]3C[C@H](O)[C@H](O[C@H]4CCC(=O)[C@H](C)O4)[C@H](C)O3)[C@H](C)O2)c2c(cc3c(c2O)C(=O)c2c(O)cccc2C3=O)[C@H]1C(=O)OC`, for which the IC50 in test [2] is 860 nM; in the test with A-431, more than 10000 nM.
